The target in one data set is T1, human thrombin (Homo sapiens, UniProt P00734).
T1 construct: Human thrombin (308 NIH; Sigma); purchased Sigma
Description: Determination of thrombin Ki (chromogenic substrate S-2238). Type of data set: biochemical. How it is done: (§1) The enzyme inhibitory effect of the compounds can be identified by determination of inhibition constant Ki. It denotes the degree of dissociation of the enzyme-inhibitor complex. Low dissociation constant means high potency of inhibitor. Ki can be determined during reaction of the enzyme with a specific chromogenic substrate which under hydrolysis by the enzyme develops color. Reaction in time is recorded by spectrophotometry and Ki is calculated from kinetic parameters (Vmax, Km, reaction rate).
1. Determination of Thrombin Ki
The ability of a compound to act as an inhibitor of human thrombin catalytic activity was assessed by determination of Ki.
A mixture of 50 μL of buffer, 50 μL of inhibitor in water (final concentrations from 10 to 100 μM) and 50 μL of thrombin (0.5 NIH U/mL f.c.) was incubated for 15 minutes at room temperature.
Thrombin activity was determined from the change in absorbance in the linear part of the velocity graph. […] The Km for the substrate was determined under the test conditions with at least 6 substrate concentrations varying around Km and calculated with the non-linear regression programme Curve expert.

In the next data set the target is T2, trypsin (UniProt P00760).
T2 construct: Trypsin (6000 E/mg prot; Sigma): dissolved in distilled water to give a stock solution of 300 E/mL
T2 sequence (P00760 1-246): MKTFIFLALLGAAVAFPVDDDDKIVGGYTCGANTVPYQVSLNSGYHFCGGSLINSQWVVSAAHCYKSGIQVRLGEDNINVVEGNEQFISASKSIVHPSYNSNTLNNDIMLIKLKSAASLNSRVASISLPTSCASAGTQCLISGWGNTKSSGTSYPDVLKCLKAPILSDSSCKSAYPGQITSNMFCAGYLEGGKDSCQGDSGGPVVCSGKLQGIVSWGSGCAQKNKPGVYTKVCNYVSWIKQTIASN
Description: Determination of trypsin Ki (chromogenic substrate S-2222). Type of data set: biochemical. As to conditions: S-2222, 25° C. How it is done:
as §1
2. Determination of Trypsin Ki
The ability of a compound to act as an inhibitor of trypsin catalytic activity was assessed by determination of Ki.
50 μL of buffer, 50 μL of test compound in water (final concentrations from 50 to 300 μM) and 50 μL of trypsin (3 mE/mL f.c.) were incubated for 15 minutes at room temperature.
Trypsin activity was determined from the change in absorbance in the linear part of velocity graph. […] The Km for the substrate was determined under test conditions with at least 6 substrate concentrations varying around Km and calculated with the non-linear regression program Curve expert.

The next data set concerns the target trypsin / thrombin. Kind of data set: Selectivity to thrombin (ratio of Ki for trypsin to Ki for thrombin). In kind it is biochemical. How it is done: 3. Selectivity to Thrombin
By the use of other serine protease like trypsin with the appropriate chromogenic substrate, selectivity of inhibitors with respect to thrombin was determined. Selectivity of an inhibitor is expressed as a ratio of Ki for trypsin to Ki for thrombin.

The test system of data set [1] is thrombus formation in a venous thrombosis model in the rat. Description: Stasis-induced thrombosis (venous thrombosis model). Type of data set: in vivo. As to conditions: iv, i.v. 5 min before thrombosis induction, tissue factor plus stasis, read-out: Stasis-induced thrombosis (ED50 ± SD). How it is done:
1. Stasis-Induced Thrombosis
Using a combination of thrombogenic challenge (0.045 ng/kg of tissue factor) and stasis, compounds were tested for their abillity to affect thrombus formation in a venous thrombosis model in the rat.
Thrombus formation by a combination of stasis and hypercoagulability was induced as described by Vogel et al. (Thromb. Res., 1989, 54, 399410). Male sprague-Dawley rats (250-300 g) were anaesthetized with sodium pentobarbitone (30 mg/kg, i.p.). The abdomen of the animals was surgically opened and after careful dissection, the vena cava was exposed and dissected free from surrounding tissue. Saline, or the various compounds were administered i.v. 5 min before thrombosis induction. […] Human tissue factor (0.045 ng/kg, i.v.) was injected into the dorsal vein of the penis. Ten seconds after the end of the injection, stasis were established by tightening the […] the proximal and then the distal. The abdominal cavity was provisionally closed and stasis was maintained for 20 minutes. The cavity was then reopened, the ligated segment was opened longitudinally and the thrombus formed was removed, rinsed, blotted on filter paper, dried overnight at 60° C. and weighed. Under these experimental conditions, control thrombus weight was 5.5±0.1 mg (n=15).

Data set [2] concerns transection of the tail of rats. Kind of data set: Bleeding time (transection of the tail). As to conditions: rat tail transection, 1 mg/kg i.v. 5 min before transection. In kind it is in vivo. How it is done:
The hemorrhagic risk associated to a treatment with selected compounds were determined using an experimental model of bleeding: transection of the tail of rats.
Bleeding time was determined by transection of the tail, 2 mm from the tip, of […] rats (30 mg/kg i.p.). The compounds were injected i.v. at the indicated doses 5 min before tail transection. Blood was carefully blotted every 15 s on a filter paper. Haemostasis was considered to be achieved when no more blood stain was observed over 1 min.

In data set [3] the test system is normal pooled human plasma. Description: Activated partial thromboplastin time (aPTT) coagulation assay. Type of data set: biochemical. As to conditions: concentration of inhibitor that doubled the clotting time. How it is done: (§2) The Anticoagulant effect of thrombin inhibitors was measured by thrombin time (TT), activated partial thromboplastin time (aPTT), and prothrombin time (PT) assays. Inhibitors were added to normal pooled human plasma over a range of concentrations and clotting was recorded in an automated coagulometer (Fibrintimer, Dade/Behring). The concentration of inhibitor that doubled the clotting time was determined for each assay.
2. Activated Partial Thromboplastin Time (aPTT)
Incubation of plasma with the optimal quantity of phospholipids and a surface activator leads to activation of factors of the intrinsic coagulation pathway. The addition of calcium ions triggers the coagulation process. The time of fibrin clot formation wass measured. aPTT was used as a screening test for coagulation disorders of the intrinsic coagulation pathway. It is prolonged due to intrinsic coagulation factors deficit or due to the presence of inhibitors.
b) Reagents • Pathromtin SL (Dade/Behring): silicon dioxide particles, vegetable phospholipids, sodium chloride (2.4 g/L), Hepes (14.3 g/L, pH 7.6), sodium azide (<1 g/L). […]
Inhibitor (10 μL working solution, concentrations from 5 μM to 100 μM) and pooled plasma (90 μL) were incubated at 37° C. for 5 minutes. […] The addition of calcium chloride (100 μL) triggered the coagulation process and clot formation was detected with a coagulometer in duplicate.

The test system of data set [4] is normal pooled human plasma. Description: Prothrombin time (PT) coagulation assay. In kind it is biochemical. As to conditions: concentration of inhibitor that doubled the clotting time. How it is done: as §2
An optimal amount of thromboplastin and calcium are added to plasma sample and the time of fibrin clot formation wass measured. PT is a rapid, sensitive screening test for coagulation disorders of the extrinsic pathway. It is well suited for the induction and monitoring of oral anticoagulant therapy, for diagnosing genetic or acquired deficiencies in coagulation factors and checking the synthesis performance of the liver in hepatic diseases. PT is prolonged due to extrinsic coagulation factors deficit or due to the presence of inhibitors.
b) Reagents • Thromboplastin (Thromborel S, Dade/Behring): was dissolved in 4 mL of distilled water. […]
Inhibitor (10 μL working solution, concentrations from 5 μM to 100 μM) and pooled plasma (90 μL) were incubated at 37° C. for 5 minutes and then Thromborel S (200 μL) was added. Clot formation was measured with a coagulometer in duplicate.

Data set [5] relates to normal pooled human plasma. Kind of data set: Thrombin time (TT) coagulation assay. In kind it is biochemical. The settings on record: concentration of inhibitor that doubled the clotting time. How it is done:
as §2
In a plasma sample thrombin converts fibrinogen into fibrin and the clot is formed. The time for clot formation was measured. Thrombin time is prolonged due to disorders in fibrin polymerisation or due to the presence of thrombin inhibitors.
b) Reagents • Thrombin (Test Thrombin Reagent, 1.5 IU/mL, Dade/Behring): lyophilized bovine thrombin was dissolved in 5 mL of HEPES (25 mmol/L, pH 7.4). The reagent was warmed to 37° C. prior to the assay. • Normal pooled plasma: venous blood from 11 apparently healthy volunteers was collected (1 part 0.11 mol/L sodium citrate solution with 9 parts of blood) and centrifuged immediately at 2000×g for 30 minutes at 4° C. […]
Inhibitors (10 μL working solution, concentrations from 2.5 μM to 100 μM) and pooled plasma (90 μL) were incubated at 37° C. for 5 minutes and then thrombin (200 μL) was added. Clot formation was measured in a coagulometer in duplicate.

[6] abbreviates: text comparison of SI 20025 compound with compound of the present invention.

This note sets out measurements from patent publication US7285547B2, “Amidinophenylalanine derivatives as thrombin inhibitors” (LEK Pharmaceuticals d.d., priority 2000, dated 2007).

As for `COc1ccc2cc(S(=O)(=O)NN(Cc3cccc(C(=N)N)c3)C(=O)N3CCCCCC3)ccc2c1`, the Ki (commonly a measure of affinity in units of concentration, obtained from inhibition or displacement) at human thrombin (human thrombin, S-2238, 25° C.) turned out to be 9 nM; on trypsin, 53 nM. In addition, at trypsin / thrombin, the “Ki trypsin/Ki thrombin” value is listed as 5.84.
Turning to `COc1ccc2cc(S(=O)(=O)NN(Cc3cccc(C(=N)N)c3)C(=O)N3CCCCCC3)ccc2c1.Cl`, the melting point (as a rule, the temperature, or range, at which the solid turns liquid) lay in the range of 151 to 154 °C.
Regarding `N=C(N)Cc1ccc(CN(NS(=O)(=O)c2ccc3ccccc3c2)C(=O)N2CCCCCC2)cc1` [compound b], on human thrombin (setting [6]), the Ki is 5 nM.
`Cl.N=C(N)c1cccc(CN(NS(=O)(=O)c2ccc3ccccc3c2)C(=O)N2CCCCCC2)c1` displayed a melting point of 151 to 154 °C.
On to `N/C(=N\O)c1cccc(CN(NS(=O)(=O)c2ccc3ccccc3c2)C(=O)N2CCCCCC2)c1` [drawing 49], for which the ED50 (in general, the dose that gives a 50% effect, or the effect in half of the subjects) in data set [1] stood at 0.29 ± 0.011 mg/kg. Moreover, the “Bleeding (fold increase at 1 mg/kg)” value in data set [2] was determined as 3.3 fold increase.
As to `COc1ccc2cc(S(=O)(=O)NN(Cc3cccc(C(=N)N)c3)C(=O)N3CCC(C)CC3)ccc2c1.Cl`, the melting point lay within 151 to 154 °C.
With `N=C(N)c1cccc(CN(NS(=O)(=O)c2ccc3ccccc3c2)C(=O)N2CCCCCC2)c1` [drawing 46], the Ki was found to be 5 nM at human thrombin (human thrombin, S-2238, 25° C.) and 143 nM at trypsin.
`COc1ccc2cc(S(=O)(=O)NN(Cc3cccc(/C(N)=N/O)c3)C(=O)N3CCCCC3C)ccc2c1` (stereo not shown) [Example 15, N′-Hydroxy-3-({2-[(6-methoxy-2-naphthyl)sulfonyl]-1-[(2-methyl-1-piperidinyl)carbonyl]hydrazino}methyl)benzenecarboximidamide] showed a melting point of 172 to 175 °C.
On to `N/C(=N\O)c1cccc(CN(NS(=O)(=O)c2ccc3ccccc3c2)C(=O)N2CCCCCC2)c1` [drawing 45], for which the Ki was 594 nM at human thrombin (human thrombin, S-2238, 25° C.) and 32200 nM at trypsin. Further, on trypsin / thrombin, the “Ki trypsin/Ki thrombin” value came out at 54.
As for `N=C(N)c1cccc(CN(NS(=O)(=O)c2ccc3ccccc3c2)C(=O)N2CCCCCC2)c1` [drawing 50], the ED50 in data set [1] came out at 0.07 ± 0.005 mg/kg.
The compound `COc1ccc2cc(S(=O)(=O)NN(Cc3cccc(/C(N)=N/O)c3)C(=O)N3CCC(C)CC3)ccc2c1` [Example 17, N′-Hydroxy-3-({2-[(6-methoxy-2-naphthyl)sulfonyl]-1-[(4-methyl-1-piperidinyl)carbonyl]hydrazino}methyl)benzenecarboximidamide] returned a melting point of 154 to 156 °C.
Take `COc1ccc2cc(S(=O)(=O)NN(Cc3cccc(C(=N)N)c3)C(=O)N3CCC(C)CC3)ccc2c1`: the affinity on human thrombin (human thrombin, S-2238, 25° C.) corresponds to a Ki of 11 nM. In data set [3], this compound gave an aPTT of 2.1 µM. In data set [4], the PT was determined as 2.7 µM. For the same compound, the TT in data set [5] was 2.0 µM.
For the compound `COc1ccc2cc(S(=O)(=O)NN(Cc3cccc(C(=N)NO)c3)C(=O)N3CCCCCC3)ccc2c1`, the Ki at trypsin was determined as 17900 nM. The “Ki trypsin/Ki thrombin” value at trypsin / thrombin was 29.
With `CC1CCN(C(=O)N(Cc2cccc(C(=N)NO)c2)NS(=O)(=O)c2ccc3ccccc3c2)CC1`, the Ki was 469 nM on human thrombin (human thrombin, S-2238, 25° C.) and more than 68300 nM on trypsin. In addition, on trypsin / thrombin, the “Ki trypsin/Ki thrombin” value is 146.
Compound `COc1ccc2cc(S(=O)(=O)NN(Cc3cccc(/C(N)=N/O)c3)C(=O)N3CCCCCC3)ccc2c1` [Example 23, 3-({1-(1-Azepanylcarbonyl)-2-[(6-methoxy-2-naphthyl)sulfonyl]hydrazino}methyl)-N′-hydroxybenzenecarboximidamide] displayed a melting point of 173 to 175 °C.
As to `N=C(N)c1ccc(CN(NS(=O)(=O)c2ccc3ccccc3c2)C(=O)N2CCCCCC2)cc1` [compound a, reference compound], the Ki at human thrombin (setting [6]) was 32 nM.
As for `CC1CCN(C(=O)N(Cc2cccc(C(=N)N)c2)NS(=O)(=O)c2ccc3ccccc3c2)CC1`, the Ki at human thrombin (human thrombin, S-2238, 25° C.) turned out to be 4 nM; at trypsin, 112 nM.
With `CC1CCCCN1C(=O)N(Cc1cccc(/C(N)=N/O)c1)NS(=O)(=O)c1ccc2ccccc2c1` (stereo not shown) [Example 13, N′-hydroxy-3-{[1-[(2-methyl-1-piperidinyl)carbonyl]-2-(2-naphthylsulfonyl)hydrazino]methyl}benzenecarboximidamide], the melting point fell in the range of 101 to 103 °C.
